A short description of series [1]: small animal PET/CT scan of two strains of mice (summary statement). Format: in vivo, mice (ICR and C57BL/6). The conditions noted are these: ICR and C57BL/6 mice. From the text:
is successfully substituted with ^18F atom, and a fluorine-substituted thiamine (Formula I) and a hydrobromide thereof (Formula II) are synthesized. Subsequently, the present inventors scan two strains of mice (ICR and C57BL/6) using the small animal PET/CT.

The nature of series [2]: PET/CT scan of ICR mice with ^18F substituted thiamine as tracer, whole brain ROI (SUV, TAC). Format: in vivo. From the text:
1. Experiments on Scanning of ICR Mice by Using ^18F Substituted Thiamine as a PET/CT Tracer.
(§1) 1.1. Experimental Drug: ^18F Substituted Thiamine (Synthesized and Identified as in Example 1).
1.2. Animals and treatments: 8-week-old ICR mice, SPF grade, purchased from Shanghai SLAC Laboratory Animal Co., Ltd, were housed in a barrier environment and assigned to a treatment group and a control group randomly. The animals in the treatment group were fed with thiamine deficient diet (n=3), and the animals in the control group were fed with normal diet (n=3). After 28 days, PET/CT scan of the mice was performed.
1.3. PET/CT scan of the mice: small animal PET/CT scanner (Inveon, Siemens) thickness of PET layer: 0.78 mm, 128*128 matrix, energy window: 350-650 kev, CT tube current: 500 uA, tube voltage: 80 kv; scan mode: dynamic scan; scan time: 90 min.
1.4. Processing of PET/CT image: After the acquisition, the images were reconstructed with two iterations of 3D OSEM. The whole brain was delimited as the region of interest (ROI) by the image processing software coming with the Inveon small animal PET/CT scanner. The Standard uptake value (SUV) and TAC within 90 min were calculated.

Series [3] is described as follows: PET/CT scan of C57BL/6 mice with ^18F substituted thiamine as tracer, whole brain ROI (SUV, TAC). Format: in vivo.
Description: 1. Experiments on Scanning of C57BL/6 Mice by Using ^18F Substituted Thiamine as a PET/CT Tracer.
as §1
1.2. Animals and treatments: 8-week-old C57BL/6 mice, SPF grade, purchased from Shanghai SLAC Laboratory Animal Co., Ltd, were housed in a barrier environment and assigned to a treatment group and a control group, randomly. The animals in the treatment group were fed with thiamine deficient diet (n=2), and the animals in the control group were fed with normal diet (n=3). After 28 days, PET/CT scan of the mice was performed.
1.3. PET/CT scan of the mice: Small animal PET/CT scanner (Inveon, Siemens), thickness of PET layer: 0.78 mm, 128*128 matrix, energy window: 350-650 kev, CT tube current: 500 uA, tube voltage: 80 kv; scan mode: dynamic scan; scan time: 90 min.
1.4. Processing of PET/CT image: After the acquisition, the images were reconstructed with two iterations of 3D OSEM. The whole brain was delimited as the region of interest (ROI) by the image processing software coming with the Inveon small animal PET/CT scanner. The SUV and TAC within 90 min were calculated.

A short description of series [4]: PET/CT scan of ICR mice with ^18F substituted thiamine as tracer, whole brain ROI (SUV, TAC). Format: in vivo. The note with it: control group ICR mice (normal diet), two mice.

Structures are written as SMILES. Several values for one entry are separate records, joined by “and”; a condition that tells them apart may be missing. Equal entries are not always repeated.

On to `Br.Cc1ncc(C[n+]2csc(CC[18F])c2C)c(N)n1.[Br-]` [^18F substituted thiamine hydrobromide], for which the “uptake in the brain of thiamine-deficient model mice versus control mice” value in series [1] was “significantly higher”. For the same compound, the blood-brain barrier penetration entry in series [1] (small animal PET/CT) is reported as “successfully penetrates the blood-brain barrier”.
Consider `Cc1ncc(C[n+]2csc(CC[18F])c2C)c(N)n1` [^18F substituted thiamine, 3-[(4-Amino-2-methylpyrimidin-5-yl)methyl]-5-(2-fluoroethyl)-4-methylthiazolium], for which the “uptake in the brains of thiamine-deficient group versus control (images)” value in series [2] (ICR mice, FIGS. 8 and 9) is “obviously increased”. Moreover, the “SUV value at peak of absorption in the brain” value in series [2] (thiamine-deficient group ICR mice, individual mice) is 0.98 and 0.97 and 0.61. Besides, in series [2] (thiamine-deficient group ICR mice, individual mice, 90 min dynamic scan), the “time of peak of absorption in the brain” value was 22.5 min and 35 min and 65 min. Further, the “uptake in the brains of thiamine-deficient mice versus control (images)” value in series [3] (C57BL/6 mice, FIGS. 12 and 13) is reported as “obviously increased”. Moreover, the “SUV value at absorption peak in the brain” value in series [3] (control group C57BL/6 mice (normal diet), individual mice) is 0.17 and 0.25 and 0.3. In series [3] (thiamine-deficient group C57BL/6 mice, individual mice, at 90 min), the “SUV value at peak of accumulation in the brain” value was 0.48 and 0.55. For the same compound, in series [3] (thiamine-deficient group C57BL/6 mice, two mice, rose continuously over 90 min), the “time of peak of accumulation in the brain” value is listed as 90 min. Also, in series [4], the “SUV value at absorption peak in the brain” value was 0.18 and 0.36; the “time of absorption peak in the brain” value was “about 20 min”.

Source of the values: patent US20180237358A1, “RADIOISOTOPE 18F SUBSTITUTED THIAMINE, AND SYNTHESIS METHOD AND USE THEREOF” (ZHONGSHAN HOSPITAL FUDAN UNIVERSITY, priority 2015, published 2018).
